Test system: cells
Experiment: not given
Details: high levels of 4μ8C; cited from earlier work

SMILES | toxicity in cells
Cc1cc(=O)oc2c(C=O)c(O)ccc12 [Compound 4μ8C] | no measurable toxicity

Biological target: kinase domain of IRE1 alpha (His-tagged kinase dead construct KR, AA G547-L977, D688N) (Homo sapiens (Human), UniProt O75460, D688N)
Experiment: IRE1α TR-FRET competition binding assay
Details: competition with Kinase Tracer 236, 0.1 μM; one hour at room temperature
Outline: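 Sf9-expressed kinase-dead KR construct (0.006 μM final) pre-incubated 1 h at 4° C with Eu anti-His antibody (0.002 μM) in HEPES pH 7.5/MgCl2/Brij/DTT buffer; Kinase Tracer 236 (ATP-competitive probe, 0.1 μM final) added with compound. 1 h at room temperature; tracer displacement read by TR-FRET (665/615 nm).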

Sequence of kinase domain of IRE1 alpha (His-tagged kinase dead construct KR, AA G547-L977, D688N) (O75460 547-977 D688N): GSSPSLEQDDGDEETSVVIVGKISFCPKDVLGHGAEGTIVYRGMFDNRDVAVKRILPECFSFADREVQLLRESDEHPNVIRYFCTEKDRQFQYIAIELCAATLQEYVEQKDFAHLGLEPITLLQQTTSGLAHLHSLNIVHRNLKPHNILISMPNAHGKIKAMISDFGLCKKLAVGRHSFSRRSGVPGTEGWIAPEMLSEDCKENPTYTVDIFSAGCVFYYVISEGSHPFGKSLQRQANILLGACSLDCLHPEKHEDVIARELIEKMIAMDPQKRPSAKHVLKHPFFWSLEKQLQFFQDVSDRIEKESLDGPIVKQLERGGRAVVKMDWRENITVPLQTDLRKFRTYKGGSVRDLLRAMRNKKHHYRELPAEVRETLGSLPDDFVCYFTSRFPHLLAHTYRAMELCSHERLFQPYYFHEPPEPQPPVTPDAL

SMILES | IC50
O=S(=O)(Nc1c(F)cc(Oc2ncccc2-c2ccnc(N[C@@H]3CNC[C@@H](F)C3)n2)c(F)c1F)C1CCCC1 [Compound 369, N-(2,3,6-Trifluoro-4-((3-(2-(((3S,5S)-5-fluoropiperidin-3-yl)amino)pyrimidin-4-yl)pyridin-2-yl)oxy)phenyl)cyclopentanesulfonamide] | 1.2 nM
O=S(=O)(Cc1ccc(C(F)(F)F)cc1)Nc1c(F)cc(Oc2ncccc2-c2ccnc(N[C@@H]3CNC[C@@H](F)C3)n2)c(F)c1F [Compound 370, N-(2,3,6-Trifluoro-4-((3-(2-(((3S,5S)-5-fluoropiperidin-3-yl)amino)pyrimidin-4-yl)pyridin-2-yl)oxy)phenyl)-1-(4-(trifluoromethyl)phenyl)methanesulfonamide] | 2 nM
Cc1ccc(CS(=O)(=O)Nc2c(F)cc(Oc3ncccc3-c3ccnc(N[C@@H]4CNC[C@@H](F)C4)n3)c(F)c2F)cc1 [Compound 375, 1-p-Tolyl-N-(2,3,6-trifluoro-4-((3-(2-(((3S,5S)-5-fluoropiperidin-3-yl)amino)pyrimidin-4-yl)pyridin-2-yl)oxy)phenyl)methanesulfonamide] | 0.4 nM
O=S(=O)(CC12CCC(CC1)CC2)Nc1c(F)cc(Oc2ncccc2-c2ccnc(N[C@@H]3CNC[C@@H](F)C3)n2)c(F)c1F [Compound 377, 1-(Bicyclo[2.2.2]octan-1-yl)-N-(2,3,6-trifluoro-4-((3-(2-(((3S,5S)-5-fluoropiperidin-3-yl)amino)pyrimidin-4-yl)pyridin-2-yl)oxy)phenyl)methanesulfonamide] | 0.8 nM
O=S(=O)(Cc1cc(F)ccc1F)Nc1c(F)cc(Oc2ncccc2-c2ccnc(N[C@@H]3CNC[C@@H](F)C3)n2)c(F)c1F [Compound 378, 1-(2,5-Difluorophenyl)-N-(2,3,6-trifluoro-4-((3-(2-(((3S,5S)-5-fluoropiperidin-3-yl)amino)pyrimidin-4-yl)pyridin-2-yl)oxy)phenyl)methanesulfonamide] | 1.1 nM
COc1ccccc1CS(=O)(=O)Nc1ccc(Oc2ncccc2-c2ccnc(N[C@H]3CCCNC3)n2)c(F)c1F [Compound 380, (S)—N-(2,3-Difluoro-4-((3-(2-(piperidin-3-ylamino)pyrimidin-4-yl)pyridin-2-yl)oxy)phenyl)-1-(2-methoxyphenyl)methanesulfonamide] | 0.9 nM
O=S(=O)(Nc1ccc(Oc2ncccc2-c2ccnc(N[C@H]3CCCNC3)n2)c(F)c1F)C1c2ccccc2-c2ccccc21 [Compound 381, (S)—N-(2,3-Difluoro-4-((3-(2-(piperidin-3-ylamino)pyrimidin-4-yl)pyridin-2-yl)oxy)phenyl)-9H-fluorene-9-sulfonamide] | 1 nM
Cc1cccc(CS(=O)(=O)Nc2c(F)cc(Oc3ncccc3-c3ccnc(N[C@@H]4CNC[C@@H](F)C4)n3)c(F)c2F)c1 [Compound 383, 1-m-Tolyl-N-(2,3,6-trifluoro-4-((3-(2-(((3S,5S)-5-fluoropiperidin-3-yl)amino)pyrimidin-4-yl)pyridin-2-yl)oxy)phenyl)methanesulfonamide] | 0.7 nM
Cc1ccc(CS(=O)(=O)Nc2c(F)cc(Oc3ncccc3-c3ccnc(N[C@@H]4CNC[C@@H](F)C4)n3)c(F)c2F)c(F)c1 [Compound 384, 1-(2-Fluoro-4-methylphenyl)-N-(2,3,6-trifluoro-4-((3-(2-(((3S,5S)-5-fluoropiperidin-3-yl)amino)pyrimidin-4-yl)pyridin-2-yl)oxy)phenyl)methanesulfonamide] | 0.3 nM
Cc1ccccc1CS(=O)(=O)Nc1c(F)cc(Oc2ncccc2-c2ccnc(N[C@@H]3CNC[C@@H](F)C3)n2)c(F)c1F [Compound 386, 1-o-Tolyl-N-(2,3,6-trifluoro-4-((3-(2-(((3S,5S)-5-fluoropiperidin-3-yl)amino)pyrimidin-4-yl)pyridin-2-yl)oxy)phenyl)methanesulfonamide] | 0.3 nM
O=S(=O)(Cc1cccnc1C(F)(F)F)Nc1c(F)cc(Oc2ncccc2-c2ccnc(N[C@@H]3CNC[C@@H](F)C3)n2)c(F)c1F [Compound 389, N-(2,3,6-Trifluoro-4-((3-(2-(((3S,5S)-5-fluoropiperidin-3-yl)amino)pyrimidin-4-yl)pyridin-2-yl)oxy)phenyl)-1-(2-(trifluoromethyl)pyridin-3-yl)methanesulfonamide] | 0.3 nM

Continued, values first:

IC50 | SMILES
0.3 nM | O=S(=O)(Cc1ccc(C(F)F)cc1)Nc1c(F)cc(Oc2ncccc2-c2ccnc(N[C@@H]3CNC[C@@H](F)C3)n2)c(F)c1F [Compound 371, 1-(4-(Difluoromethyl)phenyl)-N-(2,3,6-trifluoro-4-((3-(2-(((3S,5S)-5-fluoropiperidin-3-yl)amino)pyrimidin-4-yl)pyridin-2-yl)oxy)phenyl)methanesulfonamide]
0.3 nM | O=S(=O)(Cc1ccccc1C(F)(F)F)Nc1c(F)cc(Oc2ncccc2-c2ccnc(N[C@@H]3CNC[C@@H](F)C3)n2)c(F)c1F [Compound 373, N-(2,3,6-Trifluoro-4-((3-(2-(((3S,5S)-5-fluoropiperidin-3-yl)amino)pyrimidin-4-yl)pyridin-2-yl)oxy)phenyl)-1-(2-(trifluoromethyl)phenyl)methanesulfonamide]
0.3 nM | CC(c1ccc(C#N)cc1)S(=O)(=O)Nc1ccc(Oc2ncccc2-c2ccnc(N[C@H]3CCCNC3)n2)c(F)c1F (stereo partly drawn) [Compound 379, 1-(4-Cyanophenyl)-N-(2,3-difluoro-4-((3-(2-(((S)-piperidin-3-yl)amino)pyrimidin-4-yl)pyridin-2-yl)oxy)phenyl)ethane-1-sulfonamide]
0.2 nM | O=S(=O)(Cc1c(F)cccc1Cl)Nc1c(F)cc(Oc2ncccc2-c2ccnc(N[C@@H]3CNC[C@@H](F)C3)n2)c(F)c1F [Compound 367, 1-(2-Chloro-6-fluorophenyl)-N-(2,3,6-trifluoro-4-((3-(2-(((3S,5S)-5-fluoropiperidin-3-yl)amino)pyrimidin-4-yl)pyridin-2-yl)oxy)phenyl)methanesulfonamide]
0.2 nM | O=S(=O)(Nc1c(F)cc(Oc2ncccc2-c2ccnc(N[C@@H]3CNC[C@@H](F)C3)n2)c(F)c1F)C1CCCCC1 [Compound 368, N-(2,3,6-Trifluoro-4-((3-(2-(((3S,5S)-5-fluoropiperidin-3-yl)amino)pyrimidin-4-yl)pyridin-2-yl)oxy)phenyl)cyclohexanesulfonamide]
0.2 nM | O=S(=O)(Cc1ccc(F)cc1)Nc1c(F)cc(Oc2ncccc2-c2ccnc(N[C@@H]3CNC[C@@H](F)C3)n2)c(F)c1F [Compound 372, 1-(4-Fluorophenyl)-N-(2,3,6-trifluoro-4-((3-(2-(((3S,5S)-5-fluoropiperidin-3-yl)amino)pyrimidin-4-yl)pyridin-2-yl)oxy)phenyl)methanesulfonamide]
0.2 nM | O=S(=O)(Cc1cccc(C(F)(F)F)c1)Nc1c(F)cc(Oc2ncccc2-c2ccnc(N[C@@H]3CNC[C@@H](F)C3)n2)c(F)c1F [Compound 374, N-(2,3,6-Trifluoro-4-((3-(2-(((3S,5S)-5-fluoropiperidin-3-yl)amino)pyrimidin-4-yl)pyridin-2-yl)oxy)phenyl)-1-(3-(trifluoromethyl)phenyl)methanesulfonamide]
0.2 nM | O=S(=O)(CC12CCC(CC1)C2)Nc1c(F)cc(Oc2ncccc2-c2ccnc(N[C@@H]3CNC[C@@H](F)C3)n2)c(F)c1F [Compound 376, 1-(Bicyclo[2.2.1]heptan-1-yl)N-(2,3,6-trifluoro-4-((3-(2-(((3S,5S)-5-fluoropiperidin-3-yl)amino)pyrimidin-4-yl)pyridin-2-yl)oxy)phenyl)methanesulfonamide]
0.2 nM | COc1cccc(CS(=O)(=O)Nc2c(F)cc(Oc3ncccc3-c3ccnc(N[C@@H]4CNC[C@@H](F)C4)n3)c(F)c2F)c1 [Compound 385, 1-(3-Methoxyphenyl)-N-(2,3,6-trifluoro-4-((3-(2-(((3S,5S)-5-fluoropiperidin-3-yl)amino)pyrimidin-4-yl)pyridin-2-yl)oxy)phenyl)methanesulfonamide]
